What was measured:
Format in all cases: cell-based
IL-6 = test: Human monocyte assay (LPS-induced): IL-6; conditions: LPS stimulated human monocytes, 5 h
Description: The assay was designed as in reference, Physiological Research, 52, 593-598, (2003), the disclosure of which is incorporated by reference for the teaching of the assay.
The objective of the assay is to determine whether compounds of the present invention—mediated inhibition of LPS-induced cytokines from monocytic THP-1 cell line translates to physiologically relevant human cells. Accordingly, the effect of compounds of the present invention on LPS—induced cytokine production from freshly isolated human monocytes was ascertained.
Peripheral blood was collected from healthy donors into potassium EDTA vacutainer tubes (BD Biosciences, USA). hPBMCs were isolated using density gradient separation (Histopaque-1077; Sigma, USA) and suspended in assay medium which is RPMI culture medium (Sigma, USA) containing 10% heat inactivated FBS (JRH Biosciences, Australia), 100 U/mL penicillin (Sigma, USA) and […] streptomycin (Sigma, USA). Monocytes in the hPBMCs were counted using a Coulter Counter following which the cells were resuspended at 2×10^5 monocytes/mL of assay medium. A cell suspension containing 2×10^4 monocytes was aliquoted per well of a 96-well plate (Nunc, USA). Subsequently, the hPBMCs were incubated for 4-5 h at 37° C., 5% CO2. During the incubation, the monocytes adhered to the bottom of 96-well plate. Following the incubation, the non-adherent lymphocytes were washed and assay medium was added to adherent monocytes. After 48 h of incubation at 37° C., 5% CO2, monocytes were pre-treated with various concentrations of test compound (prepared as 20 mM stock in DMSO; 1 μL of […] concentrated solution of test compound was dissolved in 200 μL cell suspension to achieve a final concentration of 0.03, 0.1, 0.3, 1, 3, 10, 30 and 100 μM) or vehicle (0.5% DMSO) or 10 μM dexamethasone (standard IL-6 and TNF-α inhibitor, Sigma, USA) for 30 min at 37° C., 5% CO2 and stimulated with 1 μg/mL LPS (Escherchia coli 0111:B4, Sigma, USA). The cells were then incubated for 5 h at 37° C., 5% CO2 following which supernatants were collected, stored at −70° C. and were assayed later for IL-6, and TNF-α by ELISA (OptiEIA ELISA sets, BD Biosciences, USA). The IC50 values were calculated by a nonlinear regression method using Graph Pad software (Prism 3.03).

TNF-α [1] = test: Synovial tissue assay (spontaneous production): TNF-α; conditions: Homo sapiens, synovial tissue cells from rheumatoid arthritis patients, 16 h, read-out: IC50 of TNF-α inhibition
Description: The ability of compounds of the present invention to inhibit spontaneous production of cytokines from freshly isolated human synovial tissue cells was designed as in reference, Lancet, 29, 244-247, (1989) the disclosure of which is incorporated by reference for the teaching of the assay.
Synovial tissue was obtained from rheumatoid arthritis patients undergoing knee replacement surgery. […] Subsequently, the cells were washed 3 times with RPMI 1640 culture medium and resuspended in complete medium (RPMI 1640 culture medium supplemented with 5% FBS and 5% human serum-AB+(Sigma, USA) at a concentration of 1×10^6 cells/mL. The viability of synovial cells was determined by trypan blue dye exclusion and was uniformly ≧98%. For the experiment, 100 μL of cell suspension was added to the wells of a 96-well culture plate (Nunc, USA). Following cell plating, 100 μL of the culture medium and 1 μL of various concentrations of the test compound (test compound was dissolved in DMSO to obtain a stock solution of 20 mM. […] The IC50 values were calculated by a nonlinear regression method using the GraphPad software (Prism 3.03).

TNF-α [2] = test: Screening in LPS stimulated THP-1 cells: TNF-α; conditions: Homo sapiens, 24 h, ELISA
Experimental: IL-6 (BD Biosciences, USA) production by LPS (Escherchia coli 0127:B8, Sigma, USA) in THP-1 cells (ATCC number: TIB202) was designed as in reference, Journal of Immunology, 151, 5631-5638, (1993), the disclosure of which is incorporated by reference for the teaching of the assay.
THP-1 cells were cultured in RPMI 1640 culture medium (Gibco BRL, UK) containing 100 U/mL penicillin and […] streptomycin, (100× solution, Sigma, USA) containing 10% FBS (JRH Biosciences, USA). 25,000 cells were seeded per well in 96-well plate (Nunc, USA). The cells were differentiated with PMA (Sigma, USA, prepared as 100 μg/mL stock in RPMI and was diluted to 5 ng/mL). The test compound (prepared as 20 mM stock in DMSO and diluted with DMSO to achieve the following final concentrations in the assay: 100, 10, 1, 0.1, 0.01, 0.001 and 0.0001 μM) or vehicle (0.5% DMSO) were added to the cells and the cells were incubated for 30 min at 37° C. LPS (Sigma, USA, prepared as 1 mg/mL stock in PBS) was added to achieve a final concentration of 1 μg/mL. Plates were incubated at 37° C. for 24 h at 5% CO2. Supernatants were harvested, and assayed for TNF-α and IL-6 by ELISA as described by the manufacturer (BD Biosciences, USA). Percent inhibition of cytokine release compared to the control was calculated. The IC50 values were calculated by a nonlinear regression method.

Work on `C/C=C/C(O)C(C)/C=C/C(=N\O)C(C)C(O)C(C)C1OC(=O)/C(OC)=C/C(C)=C/C(C)C(O)C(CC)C(O)C(C)C/C(C)=C/C=C/C1OC` (stereo not drawn) [Compound of example 7, (3Z,5E,13E,15E)-18-((5Z,6E,10E)-3,9-Dihydroxy-5-(hydroxymino)-4,8-dimethyldodeca-6,10-dien-2-yl)-9-ethyl-8,10-dihydroxy-3,17-dimethoxy-5,7,11,13-tetramethyl oxacyclooctadeca-3,5,13,15-tetraen-2-one] yielded an IC50 (IL-6) of 0.3 µM, an IC50 (TNF-α [1]) of 19 µM and an IC50 (TNF-α [2]) of 18 µM.

From US20120225889A1, “USE OF MACROCYCLIC LACTONE DERIVATIVES FOR THE TREATMENT OF INFLAMMATORY DISORDERS” (PIRAMAL LIFE SCIENCES LIMITED, priority 2010, published 2012)
